Laboratory results from patent US20080138853A1, “Method for evaluating the degree of maturity of corneocytes” (priority 2000, published 2008).

Key:
[1] = test system: horny layer of upper arm inside (cornified envelope); test: Involucrin-positive CE in experimental rough skin on the inside of the upper arm; type: in vivo, human; details: SDS-induced experimental rough skin, 3 to 4 specimens, non-treated group 0.09 ± 0.04
Text: A cellophane adhesive tape was adhered on a face (cheek) and an upper arm of an examinee having skin troubles such as rough skin and immediately peeled off. […] The insoluble substances thus obtained was CE.
A result obtained by staining CE originating in the face of a person troubled with rough skin in the manner described above is shown in FIG. 1 (drawing substitute photograph), and shown in FIG. 2 (drawing substitute photograph) is a result obtained by staining CE originating in a horny layer obtained by experimental rough skin induced by sodium dodecylsulfate (SDS) processing or tape stripping on inside of upper arm without any skin troubles.
Further, the proportions of the involucrin-positive CE's in the SDS treated group and the tape stripping group in the experimental rough skin described above are shown in Table 1 in comparison with that of the involucrin-positive CE in the non-processed group (each 3 to 4 specimens).

[2] = test system: human epidermal keratinocytes; test: CE formation-promoting effect in cultured epidermal keratinocytes (involucrin immunostaining and Nile Red staining of CE); type: cell-based; details: 100 μM fatty acid in MEM containing 0.1% bovine serum albumin, confluent keratinocytes, cultured one week; growth medium control 15.83 ± 3.49
Text: Further, culture was continued for one week. […] The insoluble substances thus obtained were CE.

| Compound | Proportion of involucrin-positive CE (%) average ± SD [1] | Proportion of involucrin-positive CE (%) average ± SD [2] |
| --- | --- | --- |
| CCCCCCCCCCCCOS(=O)(=O)[O-].[Na+] [SDS, sodium dodecylsulfate] | 6.21 ± 2.96% | – |
| CCCCCCCC/C=C\CCCCCCCC(=O)O [oleic acid] | – | 0 (not detected) % |
| CCCCC/C=C\C/C=C\CCCCCCCC(=O)O [linoleic acid] | – | 0 (not detected) % |
